In article PMC11879040, “Advancing systemic toxicity risk assessment: Evaluation of a NAM-based toolbox approach” (Toxicological Sciences, 2024):
Read-outs that look alike come from different tables or passages of the source.

How the values were obtained:
[1] = test system: Sodium channel protein type 5 subunit alpha (site 2), SCN5A (r); format: binding, rat
[2] = target: Voltage-dependent L-type Ca2+ channel (dihydropyridine site), CACNA1C (r) (Rattus norvegicus, UniProt P22002); format: binding
Chain of Voltage-dependent L-type Ca2+ channel (dihydropyridine site), CACNA1C (r) (P22002 whole entry): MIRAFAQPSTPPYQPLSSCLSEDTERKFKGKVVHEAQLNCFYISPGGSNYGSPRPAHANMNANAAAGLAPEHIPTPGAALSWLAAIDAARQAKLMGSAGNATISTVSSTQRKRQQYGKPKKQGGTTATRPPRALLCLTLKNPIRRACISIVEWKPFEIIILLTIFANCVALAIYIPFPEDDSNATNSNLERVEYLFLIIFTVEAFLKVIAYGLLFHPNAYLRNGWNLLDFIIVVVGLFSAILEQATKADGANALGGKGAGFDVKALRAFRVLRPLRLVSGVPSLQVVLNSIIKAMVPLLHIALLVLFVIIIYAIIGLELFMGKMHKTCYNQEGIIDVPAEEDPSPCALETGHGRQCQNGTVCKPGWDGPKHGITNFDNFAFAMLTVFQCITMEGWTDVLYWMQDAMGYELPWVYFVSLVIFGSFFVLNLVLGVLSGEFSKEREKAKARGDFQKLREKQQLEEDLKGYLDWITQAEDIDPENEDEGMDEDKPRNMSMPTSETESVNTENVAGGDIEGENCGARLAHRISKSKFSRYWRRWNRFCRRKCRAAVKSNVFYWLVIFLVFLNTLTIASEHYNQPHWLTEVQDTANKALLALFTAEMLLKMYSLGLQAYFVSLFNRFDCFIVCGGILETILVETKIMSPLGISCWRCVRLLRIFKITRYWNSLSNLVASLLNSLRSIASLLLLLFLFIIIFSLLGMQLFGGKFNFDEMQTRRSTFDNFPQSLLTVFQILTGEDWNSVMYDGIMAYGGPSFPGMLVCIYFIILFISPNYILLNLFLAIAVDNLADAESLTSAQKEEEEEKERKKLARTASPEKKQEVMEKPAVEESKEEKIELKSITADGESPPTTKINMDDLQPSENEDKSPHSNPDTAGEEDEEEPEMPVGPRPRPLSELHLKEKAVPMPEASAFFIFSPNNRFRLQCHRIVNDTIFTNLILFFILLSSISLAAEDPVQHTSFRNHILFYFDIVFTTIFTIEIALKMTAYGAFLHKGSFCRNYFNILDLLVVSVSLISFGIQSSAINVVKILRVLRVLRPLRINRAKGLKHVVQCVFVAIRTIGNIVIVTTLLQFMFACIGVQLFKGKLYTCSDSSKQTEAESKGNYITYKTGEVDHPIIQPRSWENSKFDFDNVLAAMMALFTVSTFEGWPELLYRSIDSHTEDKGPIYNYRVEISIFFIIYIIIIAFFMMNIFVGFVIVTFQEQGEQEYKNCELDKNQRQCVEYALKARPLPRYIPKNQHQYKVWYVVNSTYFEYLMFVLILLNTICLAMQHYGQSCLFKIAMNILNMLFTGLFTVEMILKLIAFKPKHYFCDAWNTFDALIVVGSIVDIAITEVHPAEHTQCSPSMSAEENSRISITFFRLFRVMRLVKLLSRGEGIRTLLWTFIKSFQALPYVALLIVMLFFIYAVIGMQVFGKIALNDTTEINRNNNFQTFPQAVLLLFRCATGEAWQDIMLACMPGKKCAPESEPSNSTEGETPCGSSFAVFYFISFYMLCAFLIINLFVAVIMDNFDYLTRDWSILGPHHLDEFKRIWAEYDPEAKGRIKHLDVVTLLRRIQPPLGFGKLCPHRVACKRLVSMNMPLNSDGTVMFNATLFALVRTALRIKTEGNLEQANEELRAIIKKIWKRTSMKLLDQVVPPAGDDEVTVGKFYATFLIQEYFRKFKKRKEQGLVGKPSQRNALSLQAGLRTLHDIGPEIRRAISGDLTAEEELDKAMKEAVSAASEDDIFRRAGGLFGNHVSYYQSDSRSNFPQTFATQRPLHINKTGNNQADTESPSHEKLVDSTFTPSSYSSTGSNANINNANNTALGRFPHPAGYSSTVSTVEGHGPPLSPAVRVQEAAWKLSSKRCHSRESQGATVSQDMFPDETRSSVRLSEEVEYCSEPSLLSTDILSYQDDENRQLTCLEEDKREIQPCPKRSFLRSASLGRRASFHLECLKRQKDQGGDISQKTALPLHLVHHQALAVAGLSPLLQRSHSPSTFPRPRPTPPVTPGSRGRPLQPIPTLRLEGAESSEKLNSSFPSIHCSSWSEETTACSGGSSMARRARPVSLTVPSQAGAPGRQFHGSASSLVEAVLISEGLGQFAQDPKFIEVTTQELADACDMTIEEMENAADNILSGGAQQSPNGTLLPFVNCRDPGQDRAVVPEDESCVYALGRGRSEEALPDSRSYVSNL

[3] = test system: 63 targets with known safety liabilities; test: In vitro pharmacological profiling (IPP) panel, screening at 10 or 100 µM and dose response, minimum IC50/AC50; format: biochemical; settings: lowest AC50 across IPP panel (systemic targets); cell_type -; read-out: ipp_lowest_ac50_systemic PoD
[4] = target: T1, Adenosine receptor A2a, ADORA2A (h) (Homo sapiens, UniProt P29274); test: IPP ADORA2A binding (agonist radioligand); settings: control NECA
T1 construct: purchased Eurofins Cerep (SafetyScreen44-based IPP panel)
T1 sequence (P29274 whole entry): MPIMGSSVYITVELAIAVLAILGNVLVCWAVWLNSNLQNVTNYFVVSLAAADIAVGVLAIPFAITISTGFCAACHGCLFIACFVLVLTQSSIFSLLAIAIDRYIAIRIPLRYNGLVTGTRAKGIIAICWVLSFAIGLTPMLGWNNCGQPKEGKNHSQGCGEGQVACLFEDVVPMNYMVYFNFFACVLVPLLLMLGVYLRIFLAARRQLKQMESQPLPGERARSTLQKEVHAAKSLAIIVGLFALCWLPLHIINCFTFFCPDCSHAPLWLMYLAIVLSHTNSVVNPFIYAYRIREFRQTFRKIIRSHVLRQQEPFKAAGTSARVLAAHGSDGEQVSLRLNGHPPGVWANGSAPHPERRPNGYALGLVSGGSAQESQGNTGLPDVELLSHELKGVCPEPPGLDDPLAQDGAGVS

[5] = PBK level L2; single value or median; ref [2],[4],[6],[7],[8],[10],[11],[15],[18],[27],[34]; cited from earlier work
[6] = PBK level L2; taken or scaled from references (median where several); ref [6],[7],[10],[19]; cited from earlier work
HepaRG cells = test: High-throughput transcriptomics (HTTr, TempO-Seq), HepaRG, 24 h; format: cell-based, human; settings: HepaRG; for pod_httr_bifrost PoD: HTTr BIFROST PoD; for podl_path_minbmd PoD: HTTr minimum pathway BMD(L)
Description: (§1) HepG2, HepaRG, and MCF7 cells were treated with each compound for 24 h across a dose range of 7 concentrations and lysed using TempO-Seq lysis buffer (BioSpyder Technologies, proprietary kit, see [Middleton et al. 2022] for method details). Sequencing was performed using TempO-Seq (BioClavis) version 2 of the human whole transcriptome panel and analyzed as described previously in Middleton et al.

HepG2 cells [7] = test: Cell stress panel (CSP), 24 h, 8 concentrations, BIFROST global PoD; format: cell-based; settings: HepG2; cell stress panel PoD
Description: Compounds were tested using the previously developed cell stress panel ([Hatherell et al. 2020]) and the expanded biomarker panel outlined in Middleton et al. HepG2 cells were treated with all compounds for 24 h across 8 concentrations prior to biomarker analysis. The same plate layout and number of replicates (3 biological and 2 technical) were used as previously for each assay within the panel.

[8] = Assignment of risk classifications to benchmark chemical-exposure scenarios; settings: for risk: from table S1
[9] = test system: Potassium Voltage-Gated Channel Kv non-selective, KCNQ1 (r); test: IPP KCNQ1 binding (antagonist radioligand); parameters: species or system rat; settings: control α-dendrotoxin
human = settings: cited from earlier work
[10] = test system: Thyroid hormone receptor alpha, THRA (h); test: IPP THRA coactivator recruitment (agonist); format: biochemical, human; settings: agonist, T3
[11] = test system: Gamma-aminobutyric acid receptor subunit alpha-1 BZD site, GABRA1A (r); format: binding, rat; settings: control diazepam
HepG2 cells [12] = test: High-throughput transcriptomics (HTTr, TempO-Seq), HepG2, 24 h; format: cell-based, human; settings: HepG2; for pod_httr_bifrost PoD: HTTr BIFROST PoD; for podl_path_minbmd PoD: HTTr minimum pathway BMD(L)
Description: as §1

Tubulin (r) = test: IPP Tubulin binding; parameters: species or system rat; settings: ligand/control Colchicine
MCF7 cells = test: High-throughput transcriptomics (HTTr, TempO-Seq), MCF7, 24 h; format: cell-based, human; settings: MCF-7; for pod_httr_bifrost PoD: HTTr BIFROST PoD; for podl_path_minbmd PoD: HTTr minimum pathway BMD(L)
Description: as §1

[13] = test system: Glutamate receptor ionotropic NMDA 1 non-selective, GRIN1 (r); settings: control CGS 19755
[14] = target: T2, Estrogen receptor, ER1 (h) (Homo sapiens, UniProt P03372); test: IPP ER1 coactivator recruitment (antagonist); format: biochemical; settings: estriol
T2 construct: purchased Eurofins Cerep (SafetyScreen44-based IPP panel)
T2 sequence (P03372 1-595): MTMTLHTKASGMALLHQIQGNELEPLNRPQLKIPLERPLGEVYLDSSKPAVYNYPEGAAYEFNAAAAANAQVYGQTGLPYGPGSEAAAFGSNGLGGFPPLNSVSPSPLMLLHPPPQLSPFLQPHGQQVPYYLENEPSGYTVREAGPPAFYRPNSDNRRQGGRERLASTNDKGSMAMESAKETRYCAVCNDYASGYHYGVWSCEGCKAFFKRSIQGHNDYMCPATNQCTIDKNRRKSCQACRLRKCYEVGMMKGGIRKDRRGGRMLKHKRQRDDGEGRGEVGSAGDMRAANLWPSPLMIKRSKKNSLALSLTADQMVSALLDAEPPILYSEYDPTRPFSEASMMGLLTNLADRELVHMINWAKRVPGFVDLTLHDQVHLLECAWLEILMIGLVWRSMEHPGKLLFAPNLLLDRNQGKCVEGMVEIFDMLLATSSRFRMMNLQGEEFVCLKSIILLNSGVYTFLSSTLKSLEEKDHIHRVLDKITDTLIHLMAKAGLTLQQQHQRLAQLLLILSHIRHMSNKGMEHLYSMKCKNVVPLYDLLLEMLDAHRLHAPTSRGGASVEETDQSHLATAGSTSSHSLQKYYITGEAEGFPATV

[15] = target: T2, Estrogen receptor, ER1 (h); test: IPP ER1 coactivator recruitment (agonist); format: biochemical; settings: estriol
[16] = target: Potassium voltage-gated channel subfamily H member 2 hERG, KCNH2 (h) (Homo sapiens, UniProt Q12809); settings: [3H] Dofetilide, control Terfenadine
Chain of Potassium voltage-gated channel subfamily H member 2 hERG, KCNH2 (h) (Q12809 whole entry): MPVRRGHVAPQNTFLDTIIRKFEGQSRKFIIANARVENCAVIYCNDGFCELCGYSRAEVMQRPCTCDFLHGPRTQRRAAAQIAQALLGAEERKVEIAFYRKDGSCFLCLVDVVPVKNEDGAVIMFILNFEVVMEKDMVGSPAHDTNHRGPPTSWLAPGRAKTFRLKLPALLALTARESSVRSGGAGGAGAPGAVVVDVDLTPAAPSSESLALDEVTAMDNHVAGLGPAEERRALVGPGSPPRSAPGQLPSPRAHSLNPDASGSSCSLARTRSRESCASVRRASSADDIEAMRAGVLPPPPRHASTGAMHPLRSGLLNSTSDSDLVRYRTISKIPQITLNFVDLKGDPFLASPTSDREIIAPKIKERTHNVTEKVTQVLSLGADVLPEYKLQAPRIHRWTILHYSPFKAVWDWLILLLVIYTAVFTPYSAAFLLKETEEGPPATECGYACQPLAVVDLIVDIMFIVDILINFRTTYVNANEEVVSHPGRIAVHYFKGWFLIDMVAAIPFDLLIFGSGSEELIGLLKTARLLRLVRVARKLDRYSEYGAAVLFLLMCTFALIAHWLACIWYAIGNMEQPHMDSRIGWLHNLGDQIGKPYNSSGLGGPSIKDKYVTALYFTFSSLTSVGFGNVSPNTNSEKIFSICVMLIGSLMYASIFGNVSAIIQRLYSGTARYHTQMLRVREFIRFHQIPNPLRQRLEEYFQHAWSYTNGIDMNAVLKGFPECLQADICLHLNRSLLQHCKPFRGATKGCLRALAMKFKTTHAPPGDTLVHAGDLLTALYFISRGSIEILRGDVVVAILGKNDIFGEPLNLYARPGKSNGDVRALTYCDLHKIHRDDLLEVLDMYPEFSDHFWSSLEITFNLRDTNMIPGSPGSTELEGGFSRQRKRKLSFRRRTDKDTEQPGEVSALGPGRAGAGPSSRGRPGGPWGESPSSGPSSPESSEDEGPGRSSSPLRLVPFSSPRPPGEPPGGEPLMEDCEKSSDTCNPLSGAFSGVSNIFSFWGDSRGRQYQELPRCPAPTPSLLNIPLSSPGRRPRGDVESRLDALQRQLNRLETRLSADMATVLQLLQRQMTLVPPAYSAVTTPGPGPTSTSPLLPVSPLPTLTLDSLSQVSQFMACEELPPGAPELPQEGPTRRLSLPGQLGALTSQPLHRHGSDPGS

[17] = cited from earlier work
dog = settings: 52 weeks, ref ToxRefDB/Paul-Friedman et al. (2020)/regulatory opinions; cited from earlier work
rat = settings: rat; 7 days; ref ToxRefDB/Paul-Friedman et al. (2020)/regulatory opinions; cited from earlier work
[18] = human
[19] = 100 uM, * denotes assay interference (2-Amino-6-chloro-4-nitrophenol, HC Red 3)
[20] = IPP screening at 10 uM, control veratridine

Compound	AC50 [3] [µM]	Specific binding ([4]; IPP screening at 100 uM) [%]	Fup [5] [%]	Intrinsic Liver Clearance [6] [L/h]	pod_httr_bifrost PoD (HepaRG cells) [µM]	podl_path_minbmd PoD (HepaRG cells) [µM]	pod_cell_stress PoD (HepG2 cells [7]) [µM]	Specific binding ([9]; IPP screening at 100 uM) [%]	IPP screening %, Coactivator recruitment [10, 19] [%]	Specific binding ([11]; IPP screening at 100 uM) [%]	pod_httr_bifrost PoD (HepG2 cells [12]) [µM]	podl_path_minbmd PoD (HepG2 cells [12]) [µM]	IPP screening %, Specific binding (Tubulin (r); 100 uM) [%]	pod_httr_bifrost PoD (MCF7 cells) [µM]	podl_path_minbmd PoD (MCF7 cells) [µM]	Specific binding ([13]; IPP screening at 100 uM) [%]	Specific binding [1, 20] [%]	Specific binding ([4]; IPP screening at 10 uM) [%]	IPP screening %, Specific binding ([16]; 10 uM) [%]	Specific binding ([9]; IPP screening at 10 uM) [%]	other results
CCOC(=O)c1ccc(N)cc1 [Benzocaine, Ethyl 4-aminobenzoate]	6	36.2	36.7	7799.2	103.552	413.121	47.784	3.6	2.0	-9.1	9.489	242.367	15.0	0.8705	19.4739	11.5	–	–	–	–	Specific binding [1]: -0.8%; Specific binding [2]: 10.5%; Risk Classification ([8]; Dermal 20% in Gel): High risk; risk ([8]; Oral, 22mg/kg is the safety dose, Solution, Exp1): 1; adverse event reports related to methaemaglobinemia (human; of the 218 adverse event reports identified by Moore et al, ref [9]): Of the 218 adverse event reports identified by Moore et al, 136 were related to methaemaglobinemia with 2 cases resulting in deaths and 107 resulting in serious events.
CCN(CC)C(=O)c1cccc(C)c1 [DEET, N,N-Diethyl-3-methylbenzamide]	53.7	20.5	–	–	24.7921	567.13	29.817	-4.9	0.0	8.9	16.9912	582.029	-14.0	67.2542	670.53	4.4	–	–	–	–	Specific binding ([1]; IPP screening at 100 uM, control veratridine): 11.7%; IPP screening %, Coactivator recruitment [14, 19]: 0.0%; IPP screening %, Coactivator recruitment [15, 19]: 2.0%; IPP screening %, Specific binding ([16]; 100 uM): -12.0%; risk ([8]; Dermal, 15%, Sun lotion, Exp1): 0; NOAEL ([17]; 2-gen study, alpha-2-u nephropathy not relevant for humans, ref https://doi.org/10.1016/B978-0-12-374367-1.00098-7): Lowest human-relevant NOAEL was from a subchronic study. NOAEL of 25 mkd from 2-gen study appears to be based on alpha-2-u nephropathy which is not relevant for humans (https://doi.org/10.1016/B978-0-12-374367-1.001-7); PoD (NOAEL) ([17]; species '-', 364 days, ref ToxRefDB/Paul-Friedman et al. (2020)/regulatory opinions): 100 mg/kg bw/day
N#CC(CCc1ccc(Cl)cc1)(Cn1cncn1)c1ccccc1 (stereo not drawn) [Fenbuconazole, 4-(4-Chlorophenyl)-2-phenyl-2-[(1H-1,2,4-triazol-1-yl)methyl]butanenitrile]	2.86	–	2	10900	0.6247	4.705	2.477	–	–	–	0.5034	16.5577	–	1.305	15.4204	–	100.8	34.0	79.9	3.0	Specific binding ([2]; IPP screening at 10 uM, control nitrendipine): 97.8%; Risk Classification ([8]; Oral, residue, 0.006 mg/kg bw/day): Low risk; Risk Classification ([8]; Oral, residue, 73% of 0.006 mg/kg bw/day): Low risk; risk ([8]; Oral, 73% ADI of 0.006 mg/kg bw/day, Food residue, Exp3): 0; risk ([8]; Oral, ADI 0.006 mg/kg bw/day, Food residue, Exp2): 0; IPP screening %, Coactivator recruitment ([10]; 10 uM): 2.0%; Specific binding ([11]; IPP screening at 10 uM): 3.5%; PoD (NOAEL) (dog): 0.38 mg/kg bw/day; IPP screening %, Specific binding (Tubulin (r); 10 uM): -20.0%; Specific binding ([13]; IPP screening at 10 uM): 38.6%
O=CCCCC=O [Glutaraldehyde, Pentanedial]	–	–	–	–	–	–	–	–	–	–	–	–	–	–	–	–	13.2	-3.4	-1.1	5.2	PoD (NOAEL) (rat): 1 mg/kg bw/day; IPP screening %, Coactivator recruitment ([14]; 10 uM): -9.0%; IPP screening %, Coactivator recruitment ([15]; 10 uM): 2.0%; risk [18]: 0; NOAEL (human; 1 year human study, ref not given): The lowest NOAEL from a rat repeat-dose study. Not there is also a 1 year human study with a NOAEL of 3 mkd.; IPP screening %, Coactivator recruitment ([10]; 10 uM): 3.0%; Specific binding ([11]; IPP screening at 10 uM): -5.0%; Specific binding ([13]; IPP screening at 10 uM): -4.1%
